Laboratory results reported in patent US11331369B2, “Endoparasitic depsipeptides” (Zoetis Services LLC, priority 2017, dated 2022).

How the values were obtained:
[1] = system: microfilariae of Dirofilaria immitis; test: Dirofilaria immitis, Microfilaria (DiMF) In vitro Assay; type: cell-based; details: 72 h, read-out: DiMF Minimum Effective Dose (MED), approximately 72 hours incubation, microfilariae assessed for survival or paralysis
[2] = system: third stage larvae of Haemonchus contortus; test: Haemonchus contortus L3 (HcL3) Assay; type: cell-based; details: 96 h, read-out: HcL3 Minimum Effective Dose (MED)

CC(C)C[C@H]1C(=O)O[C@H](Cc2ccc(Cn3nccc3OC(C)C)cc2)C(=O)N(C)[C@@H](CC(C)C)C(=O)O[C@H](C)C(=O)N(C)[C@@H](CC(C)C)C(=O)O[C@H](Cc2ccc(Cn3ccc(OC(C)C)n3)cc2)C(=O)N(C)[C@@H](CC(C)C)C(=O)O[C@H](C)C(=O)N1C [Example 1a-35, (3S,6R,9S,12R,15S,18R,21S,24R)-3,9,15,21-tetraisobutyl-6-(4-((3-isopropoxy-1H-pyrazol-1-yl)methyl)benzyl)-18-(4-((5-isopropoxy-1H-pyrazol-1-yl)methyl)benzyl)-4,10,12,16,22,24-hexamethyl-1,7,13,19-tetraoxa-4,10,16,22-tetraazacyclotetracosan-2,5,8,11,14,17,20,23-octaone]
minimal effective concentration [1]: 0.01 to 0.1 µM
minimal effective concentration [2]: 1 to 10 µM

CC(C)C[C@H]1C(=O)O[C@H](Cc2ccc(Cn3ccnc3C(C)(C)C)cc2)C(=O)N(C)[C@@H](CC(C)C)C(=O)O[C@H](C)C(=O)N(C)[C@@H](CC(C)C)C(=O)O[C@H](Cc2ccccc2)C(=O)N(C)[C@@H](CC(C)C)C(=O)O[C@H](C)C(=O)N1C [Example 8-6, (3S,6R,9S,12R,15S,18R,21S,24R)-6-benzyl-18-[[4-[(2-tert-butylimidazol-1-yl)methyl]phenyl]methyl]-3,9,15,21-tetraisobutyl-4,10,12,16,22,24-hexamethyl-1,7,13,19-tetraoxa-4,10,16,22-tetrazacyclotetracosane-2,5,8,11,14,17,20,23-octaone]
minimal effective concentration [1]: 0.01 to 0.1 µM
minimal effective concentration [2]: 1 to 10 µM

CCc1nccn1Cc1ccc(C[C@H]2OC(=O)[C@H](CC(C)C)N(C)C(=O)[C@@H](C)OC(=O)[C@H](CC(C)C)N(C)C(=O)[C@@H](Cc3ccccc3)OC(=O)[C@H](CC(C)C)N(C)C(=O)[C@@H](C)OC(=O)[C@H](CC(C)C)N(C)C2=O)cc1 [Example 8-4, (3S,6R,9S,12R,15S,18R,21S,24R)-6-benzyl-18-[[4-[(2-ethylimidazol-1-yl)methyl]phenyl]methyl]-3,9,15,21-tetraisobutyl-4,10,12,16,22,24-hexamethyl-1,7,13,19-tetraoxa-4,10,16,22-tetrazacyclotetracosane-2,5,8,11,14,17,20,23-octaone]
minimal effective concentration [1]: 0.01 to 0.1 µM
minimal effective concentration [2]: 1 to 10 µM

CCc1nc(C)nn1Cc1ccc(C[C@H]2OC(=O)[C@H](CC(C)C)N(C)C(=O)[C@@H](C)OC(=O)[C@H](CC(C)C)N(C)C(=O)[C@@H](Cc3ccc(Cn4nc(C)nc4CC)cc3)OC(=O)[C@H](CC(C)C)N(C)C(=O)[C@@H](C)OC(=O)[C@H](CC(C)C)N(C)C2=O)cc1 [Example 9-59, (3S,6R,9S,12R,15S,18R,21S,24R)-6,18-bis(4-((5-ethyl-3-methyl-1H-1,2,4-triazol-1-yl)methyl)benzyl)-3,9,15,21-tetraisobutyl-4,10,12,16,22,24-hexamethyl-1,7,13,19-tetraoxa-4,10,16,22-tetraazacyclotetracosan-2,5,8,11,14,17,20,23-octaone]
minimal effective concentration [1]: 0.01 to 0.1 µM
minimal effective concentration [2]: 1 to 10 µM

CC(C)C[C@H]1C(=O)O[C@H](Cc2ccc(Cn3nc(C4CC4)c(N)c3C3CC3)cc2)C(=O)N(C)[C@@H](CC(C)C)C(=O)O[C@H](C)C(=O)N(C)[C@@H](CC(C)C)C(=O)O[C@H](Cc2ccc(Cn3nc(C4CC4)c(N)c3C3CC3)cc2)C(=O)N(C)[C@@H](CC(C)C)C(=O)O[C@H](C)C(=O)N1C [Example 1b-145, (3S,6R,9S,12R,15S,18R,21S,24R)-6,18-bis(4-((4-amino-3,5-dicyclopropyl-1H-pyrazol-1-yl)methyl)benzyl)-3,9,15,21-tetraisobutyl-4,10,12,16,22,24-hexamethyl-1,7,13,19-tetraoxa-4,10,16,22-tetraazacyclotetracosan-2,5,8,11,14,17,20,23-octaone]
minimal effective concentration [1]: 0.001 to 0.01 µM
minimal effective concentration [2]: 1 to 10 µM

CC(C)C[C@H]1C(=O)O[C@H](Cc2ccc(Cn3ccc(N)n3)cc2)C(=O)N(C)[C@@H](CC(C)C)C(=O)O[C@H](C)C(=O)N(C)[C@@H](CC(C)C)C(=O)O[C@H](Cc2ccccc2)C(=O)N(C)[C@@H](CC(C)C)C(=O)O[C@H](C)C(=O)N1C [Example 2-87, (3S,6R,9S,12R,15S,18R,21S,24R)-6-(4-((3-amino-1H-pyrazol-1-yl)methyl)benzyl)-18-benzyl-3,9,15,21-tetraisobutyl-4,10,12,16,22,24-hexamethyl-1,7,13,19-tetraoxa-4,10,16,22-tetraazacyclotetracosan-2,5,8,11,14,17,20,23-octaone]
minimal effective concentration [1]: 0.001 to 0.01 µM
minimal effective concentration [2]: 1 to 10 µM

CC(C)C[C@H]1C(=O)O[C@H](Cc2ccc(Cn3ccnc3C3CC3)cc2)C(=O)N(C)[C@@H](CC(C)C)C(=O)O[C@H](C)C(=O)N(C)[C@@H](CC(C)C)C(=O)O[C@H](Cc2ccccc2)C(=O)N(C)[C@@H](CC(C)C)C(=O)O[C@H](C)C(=O)N1C [Example 8-7, (3S,6R,9S,12R,15S,18R,21S,24R)-6-benzyl-18-[[4-[(2-cyclopropylimidazol-1-yl)methyl]phenyl]methyl]-3,9,15,21-tetraisobutyl-4,10,12,16,22,24-hexamethyl-1,7,13,19-tetraoxa-4,10,16,22-tetrazacyclotetracosane-2,5,8,11,14,17,20,23-octaone]
minimal effective concentration [1]: 0.001 to 0.01 µM
minimal effective concentration [2]: 1 to 10 µM

CC(C)C[C@H]1C(=O)O[C@H](Cc2ccc(Cn3nccc3C3(C)CCOCC3)cc2)C(=O)N(C)[C@@H](CC(C)C)C(=O)O[C@H](C)C(=O)N(C)[C@@H](CC(C)C)C(=O)O[C@H](Cc2ccc(Cn3nccc3C3(C)CCOCC3)cc2)C(=O)N(C)[C@@H](CC(C)C)C(=O)O[C@H](C)C(=O)N1C [Example 1b-213, (3S,6R,9S,12R,15S,18R,21S,24R)-3,9,15,21-tetraisobutyl-4,6,10,16,18,22-hexamethyl-12,24-bis(4-((5-(4-methyltetrahydro-2H-pyran-4-yl)-1H-pyrazol-1-yl)methyl)benzyl)-1,7,13,19-tetraoxa-4,10,16,22-tetraazacyclotetracosan-2,5,8,11,14,17,20,23-octaone]
minimal effective concentration [1]: 0.001 to 0.01 µM
minimal effective concentration [2]: 1 to 10 µM

CC(C)C[C@H]1C(=O)O[C@H](Cc2ccc(Cn3ccnc3C3CC3)cc2)C(=O)N(C)[C@@H](CC(C)C)C(=O)O[C@H](C)C(=O)N(C)[C@@H](CC(C)C)C(=O)O[C@H](Cc2ccc(Cn3ccnc3C3CC3)cc2)C(=O)N(C)[C@@H](CC(C)C)C(=O)O[C@H](C)C(=O)N1C [Example 6-7, (3S,6R,9S,12R,15S,18R,21S,24R)-6,18-bis[[4-[(2-cyclopropylimidazol-1-yl)methyl]phenyl]methyl]-3,9,15,21-tetraisobutyl-4,10,12,16,22,24-hexamethyl-1,7,13,19-tetraoxa-4,10,16,22-tetrazacyclotetracosane-2,5,8,11,14,17,20,23-octaone]
minimal effective concentration [1]: 0.01 to 0.1 µM
minimal effective concentration [2]: 1 to 10 µM

CC(C)C[C@H]1C(=O)O[C@H](Cc2ccc(Cn3cc(-c4ccncn4)cn3)cc2)C(=O)N(C)[C@@H](CC(C)C)C(=O)O[C@H](C)C(=O)N(C)[C@@H](CC(C)C)C(=O)O[C@H](Cc2ccccc2)C(=O)N(C)[C@@H](CC(C)C)C(=O)O[C@H](C)C(=O)N1C [Example 2-45, (3S,6R,9S,12R,15S,18R,21S,24R)-6-benzyl-3,9,15,21-tetraisobutyl-4,10,12,16,22,24-hexamethyl-18-(4-((4-(pyrimidin-4-yl)-1H-pyrazol-1-yl)methyl)benzyl)-1,7,13,19-tetraoxa-4,10,16,22-tetraazacyclotetracosan-2,5,8,11,14,17,20,23-octaone]
minimal effective concentration [1]: 0.001 to 0.01 µM
minimal effective concentration [2]: 1 to 10 µM

Cc1nn(Cc2ccc(C[C@H]3OC(=O)[C@H](CC(C)C)N(C)C(=O)[C@@H](C)OC(=O)[C@H](CC(C)C)N(C)C(=O)[C@@H](Cc4ccccc4)OC(=O)[C@H](CC(C)C)N(C)C(=O)[C@@H](C)OC(=O)[C@H](CC(C)C)N(C)C3=O)cc2)c(C)c1F [Example 2-79, (3S,6R,9S,12R,15S,18R,21S,24R)-6-benzyl-18-(4-((4-fluoro-3,5-dimethyl-1H-pyrazol-1-yl)methyl)benzyl)-3,9,15,21-tetraisobutyl-4,10,12,16,22,24-hexamethyl-1,7,13,19-tetraoxa-4,10,16,22-tetraazacyclotetracosan-2,5,8,11,14,17,20,23-octaone]
minimal effective concentration [1]: 0.01 to 0.1 µM
minimal effective concentration [2]: 1 to 10 µM

CC(C)C[C@H]1C(=O)O[C@H](Cc2ccc(Cn3nc(C4CC4)cc3C3CC3)cc2)C(=O)N(C)[C@@H](CC(C)C)C(=O)O[C@H](C)C(=O)N(C)[C@@H](CC(C)C)C(=O)O[C@H](Cc2ccc(Cn3nc(CO)cc3C3CC3)cc2)C(=O)N(C)[C@@H](CC(C)C)C(=O)O[C@H](C)C(=O)N1C [Example 1a-14, (3S,6R,9S,12R,15S,18R,21S,24R)-6-(4-((5-cyclopropyl-3-(hydroxymethyl)-1H-pyrazol-1-yl)methyl)benzyl)-18-(4-((3,5-dicyclopropyl-1H-pyrazol-1-yl)methyl)benzyl)-3,9,15,21-tetraisobutyl-4,10,12,16,22,24-hexamethyl-1,7,13,19-tetraoxa-4,10,16,22-tetraazacyclotetracosan-2,5,8,11,14,17,20,23-octaone]
minimal effective concentration [1]: 0.01 to 0.1 µM
minimal effective concentration [2]: 1 to 10 µM

COC(C)(C)Cc1ccnn1Cc1ccc(C[C@H]2OC(=O)[C@H](CC(C)C)N(C)C(=O)[C@@H](C)OC(=O)[C@H](CC(C)C)N(C)C(=O)[C@@H](Cc3ccc(Cn4nccc4CC(C)(C)OC)cc3)OC(=O)[C@H](CC(C)C)N(C)C(=O)[C@@H](C)OC(=O)[C@H](CC(C)C)N(C)C2=O)cc1 [Example 1b-214, (3S,6R,9S,12R,15S,18R,21S,24R)-3,9,15,21-tetraisobutyl-6,18-bis(4-((5-(2-methoxy-2-methylpropyl)-1H-pyrazol-1-yl)methyl)benzyl)-4,10,12,16,22,24-hexamethyl-1,7,13,19-tetraoxa-4,10,16,22-tetraazacyclotetracosan-2,5,8,11,14,17,20,23-octaone]
minimal effective concentration [1]: 0.01 to 0.1 µM
minimal effective concentration [2]: 1 to 10 µM
